Assay results taken from patent US5665555A, “Method of determining the effect of a test substance on a clone of a Centroptilum triangulifer mayfly” (priority 1993, dated 1997).
Entries after “also recorded” stand apart in the source; their conditions may differ.

Test system: adult C. triangulifer
Experiment: Chlordane residue (body burden), relative composition and metabolism in adult C. triangulifer by ECNI-MS
Type: in vivo, Centroptilum triangulifer (WCC 2 clone)
Conditions: for metabolism by C. triangulifer: 4.3 μg/l technical chlordane; for amount of cis- and trans-chlordane relative to the nonachlors in C. triangulifer: compared to original distribution in technical chlordane; for relative composition of principal chlordane components or metabolites in mayflies: reared at 4.3 μg/l chlordane; for bioaccumulation in C. triangulifer: in vivo
Procedure: Surviving C. triangulifer individuals from the various controls and treatment groups were collected daily as subimagos (pre-adults) from emergence cages. Most subimagos emerging from a given vessel were immediately killed, measured, dried, and weighed. The viability of eggs obtained from females that had been chronically exposed as larvae to the various control and treatment conditions was also assessed. Thus, a few subimagos from certain treatments were kept alive for 24 h (n=8, 5, 8, 6, 10, and 6 for the 4.3, 9.4, 15.4, 27.4, and 56.3 μg/l and control groups, respectively), during which time they molted to the adult stage and were allowed to oviposit into individual glass jars for assessing hatch success as described above. A few adults from the 4.3 μg/l group were frozen intact at […] for later analysis for chlordane residue by electron capture negative ionization mass spectrometry (ECNI-MS). Chiordane residue in adults reared as larvae in 0.005, 0.05, and 0.5 μg/l treatments was also determined.
Chlordane was extracted from water samples by liquid-liquid extraction in a separatory funnel with three aliquots of hexane. PCB204 (2,2',3,4,4',5,6,6'-octachlorobiphenyl) was added as a surrogate standard before extraction. Each hexane aliquot was rinsed into the plastic sample bottle after transfer of the water sample and before its addition to the separatory funnel containing the water sample to ensure removal of chlordane adsorbed on the walls. The three hexane aliquots were combined and evaporated with a rotary evaporator and then further evaporated down to 100 μl under nitrogen for the final step. Chlordane components and metabolites were quantified from the relative responses of the surrogate standard and the authentic standards of heptachlor; trans- and cis-chlordane; trans- and cis-nonachlor; and the two metabolites, heptachlor epoxide and oxychlordane (n.b. cis-nonachlor was estimated from the response factor for trans-nonachlor). Adult body burdens and water concentrations of chlordane residue were calculated by comparison of the component areas with that of the surrogate standard to correct for losses during extraction and purification.
Adult mayflies from a given replicate vessel per treatment were dried and combined in lots of five to thirteen organisms for extraction and analysis. The mayflies were ground in 0.5 ml methanol after addition of the surrogate standard PCB204 and extracted by sonication with two 10 ml aliquots of a 1:1 methanol:methylene chloride mixture. Extracts were filtered through pasteur pipettes loaded with approximately 1.0 g of Na2 SO4 and clean glass wool. Chlordane components and the surrogate standard were separated from other components in the extract on 1% deactivated silica (0.8 g) microcolumns (organochlorines were eluted with 20% methylene chloride in hexane).
Five principal chlordane components and two metabolites (heptachlor, cis- and trans-chlordane, cis- and trans-nonachlor, heptachlor epoxide, and oxychlordane) were identified and quantified by ECNI-MS, using a Hewlett Packard 5988/RTE-A mass spectrometer equipped with a Hewlett Packard 5890 GC. Instrumental conditions were: GC -0.25 mm, 30 m DB-5 column (J & W Scientific) held at 60° C. for 2 min, then ramped to 180° C. at 20°/min, to 230° C. at 2°/min, to 280° C. at 10°/min, and then held at 280° C. for 10 min; MS-CH4 pressure 0.45 torr, source temperature 100° C.

Row | Structure (SMILES) | metabolism by C. triangulifer | amount of cis- and trans-chlordane relative to the nonachlors in C. triangulifer | relative composition of principal chlordane components or metabolites in mayflies | bioaccumulation in C. triangulifer | ratio of trans-nonachlor to cis-nonachlor in C. triangulifer (range)
1 | ClC1=C(Cl)[C@]2(Cl)[C@@H]3C[C@@H](Cl)[C@@H](Cl)[C@@H]3[C@@]1(Cl)C2(Cl)Cl (relative stereo) [cis-chlordane] | metabolized in part to oxychlordane; also recorded: capable of metabolizing or excreting both isomers equally | Reduced quantities | 4±3% | – | –
2 | ClC1=C(Cl)[C@]2(Cl)[C@@H]3[C@@H](Cl)[C@H](Cl)[C@@H](Cl)[C@@H]3[C@@]1(Cl)C2(Cl)Cl [trans-nonachlor] | poorly metabolized | – | 45±11% | clear trend for the C. triangulifer mayfly to bioaccumulate | 6.2-8.6
3 | ClC1=C(Cl)C2(Cl)C3C(Cl)C=CC3C1(Cl)C2(Cl)Cl (stereo not drawn) [heptachlor] | completely metabolize | – | – | – | –
4 | ClC1=C(Cl)[C@]2(Cl)[C@@H]3[C@@H](Cl)[C@@H](Cl)[C@@H](Cl)[C@@H]3[C@@]1(Cl)C2(Cl)Cl [cis-nonachlor] | poorly metabolized | – | 6±2% | clear trend for the C. triangulifer mayfly to bioaccumulate | –
5 | ClC1=C(Cl)[C@]2(Cl)[C@@H]3C[C@H](Cl)[C@@H](Cl)[C@@H]3[C@@]1(Cl)C2(Cl)Cl (relative stereo) [trans-chlordane] | metabolized in part to oxychlordane; also recorded: capable of metabolizing or excreting both isomers equally | Reduced quantities | 5±3% | – | –
6 | ClC1=C(Cl)[C@]2(Cl)[C@H]3[C@H]([C@@H](Cl)[C@]4(Cl)O[C@H]34)[C@@]1(Cl)C2(Cl)Cl [oxychlordane] | – | – | 21±13% | clear trend for the C. triangulifer mayfly to bioaccumulate | –
7 | ClC1=C(Cl)C2(Cl)C3C4OC4C(Cl)C3C1(Cl)C2(Cl)Cl (stereo not drawn) [heptachlor epoxide] | – | – | 18±7% | clear trend for the C. triangulifer mayfly to bioaccumulate | –
